[invAb] = inverted abasic unit; d = 2'-deoxy (DNA); m = 2'-O-methyl; r = 2'-OH (RNA); f = 2'-fluoro
These substances were tested on ICAM-1 mRNA (assay: ICAM-1 mRNA knock-down in transfected Calu-1 cells (Taqman RT-PCR)). Details: Calu-1 cells, 10 nM siNA, 24 hrs post-transfection, mean ± S.D., relative to non-targeting control.
Type: cell-based, human
Procedure: Calu-1 (human; ATCC cat# HTB-54): Cells were cultured at 37° C. in the presence of 5% CO2 and grown in McCoy's 5a medium supplemented with fetal bovine serum at a final concentration of 10% and 100 μg/mL of streptomycin and 100 U/mL penicillin.
All transfections were performed using RNAiMax (Invitrogen Cat# 13778-150) as per the manufacturer's instructions.
Calu-1 cells were plated in all wells of a tissue-culture treated, 96-well plate at final counts of 5,000 cells/well in 100 μL of appropriate culture media. Cells were cultured for 24 hours after plating at 37° C. in the presence of 5% CO2.
After 24 hours, complexes containing siNA and RNAiMax were created as follows. A solution of RNAiMax diluted 33-fold in OPTI-MEM was prepared. In parallel, solutions of the siNAs for testing were prepared to a final concentration of 120 nM in OPTI-MEM. After incubation of RNAiMax/OPTI-MEM solution at room temperature for 5 min, an equal volume of the siNA solution and the RNAiMax solution were added together for each of the siNAs. […] This solution was incubated at room temperature for 20 minutes. After incubation, 20 uL of the solution was added to each of the relevant wells. The final concentration of siNA in each well was 10 nM and the final volume of RNAiMax in each well was 0.3 uL.
The time of incubation with the RNAiMax-siNA complexes was 24 hours, unless otherwise indicated. There was no change in media between the transfection and harvesting of the cells unless otherwise indicated.
Dose response curves were carried out in a similar fashion in 96-well plates, while maintaining a constant amount of RNAiMax in each transfection.
RNA was extracted from a 96-well plate using the TaqMan® Gene Expression Cells-to-CT™ Kit (Cat# 4399002) with a modified protocol. Briefly, a 60 uL (1 plate) or 110 uL (2 plates) of the Lysis Solution with DNase I was dispensed into each well of the Lysis Buffer Plate (twin.tec full skirt plate). The lysis buffer and stop plates were stored at 4° C. until the cells were washed.
The plate was spun at 1100 rpm for 5 minutes. The culture medium was aspirated and discarded from the wells of the culture plate. The lysis was performed automatically using a BioMek FX instrument and method. After the Biomek method was completed, the lysis plate was incubated for 2 min. at room temperature. The lysis plate can be stored for 2 hours at 4° C., or at −20° C. or −80° C. for two months.
Each well of the reverse transcription plate required 10 uL of 2× reverse transcriptase Buffer, 1 uL of 20× reverse transcription enzyme and 2 uL of nuclease-free water. The reverse transcription master mix was prepared by mixing 2× reverse transcription buffer, 20× reverse transcription enzyme mix, and nuclease-free water. 13 uL of the reverse transcription master mix was dispensed into each well of the reverse transcription plate (semi-skirted). A separate reverse transcription plate was prepared for each cell plate. The plate was loaded onto a Biomek NX or Biomek FX Dual-96 and the Biomek method was run. The program is programmed to automatically added 7 uL of lysate from the cell lysis procedure described above into each well of the reverse transcription plate. The plate is sealed and spun on a centrifuge (1000 rpm for 30 seconds) to settle the contents to the bottom of the reverse transcription plate. The plate is placed in a thermocycler at 37° C. for 60 min, 95° C. for 5 min, and 4° C. until the plate is removed from the thermocycler. Upon removal, if not used immediately, the plate was frozen at −20° C.
A series of probes and primers were used to detect the various mRNA transcripts of the genes of ICAM-1 and ICAM-2 in human cell lines (see Table 2). All the Taqman probes and primers for the experiments here-in described were supplied as pre-validated sets by Applied Biosystems, Inc., (see Table 2). The assays were performed on an ABI 7900 instrument, according to the manufacturer's instructions. […]

Substance | % KD Human [%]
48714-DC: siNA duplex, ICAM-1 target site 1089 (m); sense B GGGucGAAGGuGGuucuuc TTB; antisense GAAGAAccAccuucGAcccUU (sense GGGUCGAAGGUGGUUCUUCTT; antisense GAAGAACCACCUUCGACCCUU; sense: DNA at AGT, 2'-fluoro at CU, [invAb] at 5' end, 3' end, backbone not given here; antisense: sugars from the 5' end rrrmmmffmfffffmmfffmm, backbone not given here) | 48 ± 22
48720-DC: siNA duplex, ICAM-1 target site 1609 (h); sense B GuGucuAAAGGAuGGcAcu TTB; antisense AGUGccAuccuuuAGAcAcUU (sense GUGUCUAAAGGAUGGCACUTT; antisense AGUGCCAUCCUUUAGACACUU; sense: DNA at AGT, 2'-fluoro at CU, [invAb] at 5' end, 3' end, backbone not given here; antisense: sugars from the 5' end rrrmffmffffffmmmfmfmm, backbone not given here) | 48 ± 20
48719-DC: siNA duplex, ICAM-1 target site 1230 (h); sense B cAGuGAccAucuAcAGcuu TTB; antisense AAGcuGuAGAuGGucAcuGUU (sense CAGUGACCAUCUACAGCUUTT; antisense AAGCUGUAGAUGGUCACUGUU; sense: DNA at AGT, 2'-fluoro at CU, [invAb] at 5' end, 3' end, backbone not given here; antisense: sugars from the 5' end rrrffmfmmmfmmffmffmmm, backbone not given here) | 71 ± 9
48702-DC: siNA duplex, ICAM-1 target site 990 (m); sense B AccuuAAcAGucuAcAAcu TTB; antisense AGUuGuAGAcuGuuAAGGuUU (sense ACCUUAACAGUCUACAACUTT; antisense AGUUGUAGACUGUUAAGGUUU; sense: DNA at AGT, 2'-fluoro at CU, [invAb] at 5' end, 3' end, backbone not given here; antisense: sugars from the 5' end rrrfmfmmmffmffmmmmfmm, backbone not given here) | 19 ± 6
29291-DC: siNA duplex, ICAM-1 target site 2120 (h); sense B GAucuGuAGucAcAuGAcu TTB; antisense AGUcAuGuGAcuAcAGAucUU (sense GAUCUGUAGUCACAUGACUTT; antisense AGUCAUGUGACUACAGAUCUU; sense: DNA at AGT, 2'-fluoro at CU, [invAb] at 5' end, 3' end, backbone not given here; antisense: sugars from the 5' end rrrfmfmfmmffmfmmmffmm, backbone not given here) | 84 ± 7
48708-DC: siNA duplex, ICAM-1 target site 1762 (m); sense B AcAGcAuuuAcccucAGcc TTB; antisense GGCuGAGGGuAAAuGcuGuUU (sense ACAGCAUUUACCCUCAGCCTT; antisense GGCUGAGGGUAAAUGCUGUUU; sense: DNA at AGT, 2'-fluoro at CU, [invAb] at 5' end, 3' end, backbone not given here; antisense: sugars from the 5' end rrrfmmmmmfmmmfmffmfmm, backbone not given here) | 22 ± 9
48727-DC: siNA duplex, ICAM-1 target site 1521 (h); sense B GGGAuuGuccGGGAAAcuG TTB; antisense CAGuuucccGGAcAAucccUU (sense GGGAUUGUCCGGGAAACUGTT; antisense CAGUUUCCCGGACAAUCCCUU; sense: DNA at AGT, 2'-fluoro at CU, [invAb] at 5' end, 3' end, backbone not given here; antisense: sugars from the 5' end rrrffffffmmmfmmffffmm, backbone not given here) | 23 ± 6
29289-DC: siNA duplex, ICAM-1 target site 2152 (h); sense B GGAGcAAGAcucAAGAcAu TTB; antisense AUGucuuGAGucuuGcuccUU (sense GGAGCAAGACUCAAGACAUTT; antisense AUGUCUUGAGUCUUGCUCCUU; sense: DNA at AGT, 2'-fluoro at CU, [invAb] at 5' end, 3' end, backbone not given here; antisense: sugars from the 5' end rrrffffmmmffffmffffmm, backbone not given here) | 78 ± 15
48718-DC: siNA duplex, ICAM-1 target site 1938 (h); sense B cucuuccucGGccuucccA TTB; antisense UGGGAAGGccGAGGAAGAGUU (sense CUCUUCCUCGGCCUUCCCATT; antisense UGGGAAGGCCGAGGAAGAGUU; sense: sugars from the 5' end f9 d2 f7 d3, [invAb] at 5' end, 3' end, backbone not given here; antisense: sugars from the 5' end r4 m4 f2 m11, backbone not given here) | 19 ± 11
48698-DC: siNA duplex, ICAM-1 target site 1611 (m); sense B AGAAAGAucAGGAuAuAcA TTB; antisense UGUAuAuccuGAucuuucuUU (sense AGAAAGAUCAGGAUAUACATT; antisense UGUAUAUCCUGAUCUUUCUUU; sense: DNA at AGT, 2'-fluoro at CU, [invAb] at 5' end, 3' end, backbone not given here; antisense: sugars from the 5' end rrrmfmffffmmfffffffmm, backbone not given here) | 34 ± 6
48716-DC: siNA duplex, ICAM-1 target site 368 (m); sense B GcAGucGuccGcuuccGcu TTB; antisense AGCGGAAGcGGAcGAcuGcUU (sense GCAGUCGUCCGCUUCCGCUTT; antisense AGCGGAAGCGGACGACUGCUU; sense: DNA at AGT, 2'-fluoro at CU, [invAb] at 5' end, 3' end, backbone not given here; antisense: sugars from the 5' end rrrmmmmmfmmmfmmffmfmm, backbone not given here) | 22 ± 6
48726-DC: siNA duplex, ICAM-1 target site 1217 (h); sense B GAGAcAcuGcAGAcAGuGA TTB; antisense UCAcuGucuGcAGuGucucUU (sense GAGACACUGCAGACAGUGATT; antisense UCACUGUCUGCAGUGUCUCUU; sense: DNA at AGT, 2'-fluoro at CU, [invAb] at 5' end, 3' end, backbone not given here; antisense: sugars from the 5' end rrrffmfffmfmmfmffffmm, backbone not given here) | 64 ± 16
48706-DC: siNA duplex, ICAM-1 target site 250 (m); sense B GcuuGGAGAcucAGuGGcu TTB; antisense AGCcAcuGAGucuccAAGcUU (sense GCUUGGAGACUCAGUGGCUTT; antisense AGCCACUGAGUCUCCAAGCUU; sense: DNA at AGT, 2'-fluoro at CU, [invAb] at 5' end, 3' end, backbone not given here; antisense: sugars from the 5' end rrrfmffmmmfffffmmmfmm, backbone not given here) | 23 ± 31
